System: CV-A24
Experiment: microbe, parasite or virus in culture
Type: cell-based, coxsackievirus A24
Details: Enterovirus C, CVA24, HeLa R19, read-out: EC50 CV-A24

Structure (SMILES)	EC50 [µM]
COc1ccc(N(Cc2ccc(F)cc2)C(=O)c2ccccn2)cc1 [Compound 5e, N-(4-fluorobenzyl)-N-(4-methoxyphenyl)picolinamide]	> 30

System: CV-B3
Experiment: microbe, parasite or virus in culture
Type: cell-based, coxsackievirus B3
Details: Enterovirus B, CVB3, HeLa R19, read-out: CV-B3 EC50 Average

Structure (SMILES)	EC50 [µM]
COc1ccc(N(Cc2ccc(F)cc2)C(=O)c2ccccn2)cc1 [Compound 5e, N-(4-fluorobenzyl)-N-(4-methoxyphenyl)picolinamide]	6.44

Same assay, conditions: Enterovirus B, CVB3, HeLa R19, read-out: CV-B3 Exp 1 EC50

Structure (SMILES)	EC50 [µM]
COc1ccc(N(Cc2ccc(F)cc2)C(=O)c2ccccn2)cc1 [Compound 5e, N-(4-fluorobenzyl)-N-(4-methoxyphenyl)picolinamide]	6.02

Same assay, conditions: Enterovirus B, CVB3, HeLa R19, read-out: CV-B3 Exp2 EC50

Structure (SMILES)	EC50 [µM]
COc1ccc(N(Cc2ccc(F)cc2)C(=O)c2ccccn2)cc1 [Compound 5e, N-(4-fluorobenzyl)-N-(4-methoxyphenyl)picolinamide]	6.86

Same assay, conditions: Enterovirus B, CVB3, HeLa R19, read-out: EC50 HelaR19 Average

Structure (SMILES)	EC50 [µM]
COc1ccc(N(Cc2ccc(F)cc2)C(=O)c2ccccn2)cc1 [Compound 5e, N-(4-fluorobenzyl)-N-(4-methoxyphenyl)picolinamide]	8.87

Same assay, conditions: Enterovirus B, CVB3, HeLa R19, read-out: Exp 1 EC50 HelaR19

Structure (SMILES)	EC50 [µM]
COc1ccc(N(Cc2ccc(F)cc2)C(=O)c2ccccn2)cc1 [Compound 5e, N-(4-fluorobenzyl)-N-(4-methoxyphenyl)picolinamide]	8.41

Same assay, conditions: Enterovirus B, CVB3, HeLa R19, read-out: Exp 2 EC50 HelaR19

Structure (SMILES)	EC50 [µM]
COc1ccc(N(Cc2ccc(F)cc2)C(=O)c2ccccn2)cc1 [Compound 5e, N-(4-fluorobenzyl)-N-(4-methoxyphenyl)picolinamide]	9.32

System: CV-B3
Experiment: microbe, parasite or virus in culture
Type: cell-based, coxsackievirus B3
Details: Enterovirus B, CVB3, HAP1

Structure (SMILES)	EC50 [µM]
COc1ccc(N(Cc2ccc(F)cc2)C(=O)c2ccccn2)cc1 [Compound 5e, N-(4-fluorobenzyl)-N-(4-methoxyphenyl)picolinamide]	15.8 ± 1.65

Same assay, conditions: Enterovirus B, CVB3, HAP1, read-out: EC50 Hap1 Average

Structure (SMILES)	EC50 [µM]
COc1ccc(N(Cc2ccc(F)cc2)C(=O)c2ccccn2)cc1 [Compound 5e, N-(4-fluorobenzyl)-N-(4-methoxyphenyl)picolinamide]	15.9

Same assay, conditions: Enterovirus B, CVB3, HAP1, read-out: Exp 1 EC50 Hap1

Structure (SMILES)	EC50 [µM]
COc1ccc(N(Cc2ccc(F)cc2)C(=O)c2ccccn2)cc1 [Compound 5e, N-(4-fluorobenzyl)-N-(4-methoxyphenyl)picolinamide]	17.5

Same assay, conditions: Enterovirus B, CVB3, HAP1, read-out: Exp 2 EC50 Hap1

Structure (SMILES)	EC50 [µM]
COc1ccc(N(Cc2ccc(F)cc2)C(=O)c2ccccn2)cc1 [Compound 5e, N-(4-fluorobenzyl)-N-(4-methoxyphenyl)picolinamide]	14.2

System: HRV-A2
Experiment: microbe, parasite or virus in culture
Type: cell-based, human rhinovirus
Details: Human rhinovirus sp., HRVA2, HeLa R19, read-out: EC50 HRV-A2

Structure (SMILES)	EC50 [µM]
COc1ccc(N(Cc2ccc(F)cc2)C(=O)c2ccccn2)cc1 [Compound 5e, N-(4-fluorobenzyl)-N-(4-methoxyphenyl)picolinamide]	> 30

System: PV-1
Experiment: microbe, parasite or virus in culture
Type: cell-based, poliovirus 1
Details: Enterovirus C, HeLa R19, read-out: EC50 PV-1

Structure (SMILES)	EC50 [µM]
COc1ccc(N(Cc2ccc(F)cc2)C(=O)c2ccccn2)cc1 [Compound 5e, N-(4-fluorobenzyl)-N-(4-methoxyphenyl)picolinamide]	> 30

System: not listed separately
Experiment: in vitro
Details: monkey, CC50

Structure (SMILES)	CC50 [µM]
COc1ccc(N(Cc2ccc(F)cc2)C(=O)c2ccccn2)cc1 [Compound 5e, N-(4-fluorobenzyl)-N-(4-methoxyphenyl)picolinamide]	> 100

Same assay, conditions: monkey, CC50 BGM Average

Structure (SMILES)	CC50 [µM]
COc1ccc(N(Cc2ccc(F)cc2)C(=O)c2ccccn2)cc1 [Compound 5e, N-(4-fluorobenzyl)-N-(4-methoxyphenyl)picolinamide]	> 100

Same assay, conditions: monkey, Exp 1 CC50 BGM

Structure (SMILES)	CC50 [µM]
COc1ccc(N(Cc2ccc(F)cc2)C(=O)c2ccccn2)cc1 [Compound 5e, N-(4-fluorobenzyl)-N-(4-methoxyphenyl)picolinamide]	> 100

Same assay, conditions: monkey, Exp 2 CC50 BGM

Structure (SMILES)	CC50 [µM]
COc1ccc(N(Cc2ccc(F)cc2)C(=O)c2ccccn2)cc1 [Compound 5e, N-(4-fluorobenzyl)-N-(4-methoxyphenyl)picolinamide]	> 100

System: CV-B3
Experiment: microbe, parasite or virus in culture
Type: cell-based, coxsackievirus B3
Details: Enterovirus B, CVB3, BGM, read-out: EC50 BGM Average

Structure (SMILES)	EC50 [µM]
COc1ccc(N(Cc2ccc(F)cc2)C(=O)c2ccccn2)cc1 [Compound 5e, N-(4-fluorobenzyl)-N-(4-methoxyphenyl)picolinamide]	17.8

Same assay, conditions: Enterovirus B, CVB3, BGM, read-out: Exp 1 EC50 BGM

Structure (SMILES)	EC50 [µM]
COc1ccc(N(Cc2ccc(F)cc2)C(=O)c2ccccn2)cc1 [Compound 5e, N-(4-fluorobenzyl)-N-(4-methoxyphenyl)picolinamide]	16.7

Same assay, conditions: Enterovirus B, CVB3, BGM, read-out: Exp 2 EC50 BGM

Structure (SMILES)	EC50 [µM]
COc1ccc(N(Cc2ccc(F)cc2)C(=O)c2ccccn2)cc1 [Compound 5e, N-(4-fluorobenzyl)-N-(4-methoxyphenyl)picolinamide]	18.9

System: EV-D68
Experiment: microbe, parasite or virus in culture
Type: cell-based, enterovirus D68
Details: Enterovirus D, EVD68, HeLa R19, read-out: EC50 EV-D68

Structure (SMILES)	EC50 [µM]
COc1ccc(N(Cc2ccc(F)cc2)C(=O)c2ccccn2)cc1 [Compound 5e, N-(4-fluorobenzyl)-N-(4-methoxyphenyl)picolinamide]	10.5 ± 1.37

Same assay, conditions: Enterovirus D, EVD68, HeLa R19, read-out: EC50 Exp1

Structure (SMILES)	EC50 [µM]
COc1ccc(N(Cc2ccc(F)cc2)C(=O)c2ccccn2)cc1 [Compound 5e, N-(4-fluorobenzyl)-N-(4-methoxyphenyl)picolinamide]	11.8

Same assay, conditions: Enterovirus D, EVD68, HeLa R19, read-out: EC50 Exp2

Structure (SMILES)	EC50 [µM]
COc1ccc(N(Cc2ccc(F)cc2)C(=O)c2ccccn2)cc1 [Compound 5e, N-(4-fluorobenzyl)-N-(4-methoxyphenyl)picolinamide]	9.08

System: EV-A71
Experiment: microbe, parasite or virus in culture
Type: cell-based, enterovirus A71
Details: Enterovirus A, EVA71, HeLa R19, read-out: EC50 EV-A71

Structure (SMILES)	EC50 [µM]
COc1ccc(N(Cc2ccc(F)cc2)C(=O)c2ccccn2)cc1 [Compound 5e, N-(4-fluorobenzyl)-N-(4-methoxyphenyl)picolinamide]	> 30

System: HRV-B14
Experiment: microbe, parasite or virus in culture
Type: cell-based, human rhinovirus
Details: Human rhinovirus sp., HRVB14, HeLa R19, read-out: EC50 HRV-B14

Structure (SMILES)	EC50 [µM]
COc1ccc(N(Cc2ccc(F)cc2)C(=O)c2ccccn2)cc1 [Compound 5e, N-(4-fluorobenzyl)-N-(4-methoxyphenyl)picolinamide]	> 30

System: not listed separately
Experiment: in vitro
Details: human, CC50 Average

Structure (SMILES)	CC50 [µM]
COc1ccc(N(Cc2ccc(F)cc2)C(=O)c2ccccn2)cc1 [Compound 5e, N-(4-fluorobenzyl)-N-(4-methoxyphenyl)picolinamide]	> 30

Same assay, conditions: human, CC50 HelaR19 Average

Structure (SMILES)	CC50 [µM]
COc1ccc(N(Cc2ccc(F)cc2)C(=O)c2ccccn2)cc1 [Compound 5e, N-(4-fluorobenzyl)-N-(4-methoxyphenyl)picolinamide]	> 100

Same assay, conditions: human, Exp 1 CC50

Structure (SMILES)	CC50 [µM]
COc1ccc(N(Cc2ccc(F)cc2)C(=O)c2ccccn2)cc1 [Compound 5e, N-(4-fluorobenzyl)-N-(4-methoxyphenyl)picolinamide]	> 30

Same assay, conditions: human, Exp 1 CC50 HelaR19

Structure (SMILES)	CC50 [µM]
COc1ccc(N(Cc2ccc(F)cc2)C(=O)c2ccccn2)cc1 [Compound 5e, N-(4-fluorobenzyl)-N-(4-methoxyphenyl)picolinamide]	> 100

Same assay, conditions: human, Exp2 CC50

Structure (SMILES)	CC50 [µM]
COc1ccc(N(Cc2ccc(F)cc2)C(=O)c2ccccn2)cc1 [Compound 5e, N-(4-fluorobenzyl)-N-(4-methoxyphenyl)picolinamide]	> 30

Same assay, conditions: human, Exp 2 CC50 HelaR19

Structure (SMILES)	CC50 [µM]
COc1ccc(N(Cc2ccc(F)cc2)C(=O)c2ccccn2)cc1 [Compound 5e, N-(4-fluorobenzyl)-N-(4-methoxyphenyl)picolinamide]	> 100

System: HeLa R19 cells
Experiment: not given
Details: not given

Structure (SMILES)	cytotoxicity (in words)
COc1ccc(N(Cc2ccc(F)cc2)C(=O)c2ccccn2)cc1 [Compound 5e, N-(4-fluorobenzyl)-N-(4-methoxyphenyl)picolinamide]	no cytotoxicity

System: not listed separately
Experiment: in vitro
Details: human, CC50

Structure (SMILES)	CC50 [µM]
COc1ccc(N(Cc2ccc(F)cc2)C(=O)c2ccccn2)cc1 [Compound 5e, N-(4-fluorobenzyl)-N-(4-methoxyphenyl)picolinamide]	> 100

Same assay, conditions: human, CC50 Hap1 Average

Structure (SMILES)	CC50 [µM]
COc1ccc(N(Cc2ccc(F)cc2)C(=O)c2ccccn2)cc1 [Compound 5e, N-(4-fluorobenzyl)-N-(4-methoxyphenyl)picolinamide]	> 100

Same assay, conditions: human, Exp 1 CC50 Hap1

Structure (SMILES)	CC50 [µM]
COc1ccc(N(Cc2ccc(F)cc2)C(=O)c2ccccn2)cc1 [Compound 5e, N-(4-fluorobenzyl)-N-(4-methoxyphenyl)picolinamide]	> 100

Same assay, conditions: human, Exp 2 CC50 Hap1

Structure (SMILES)	CC50 [µM]
COc1ccc(N(Cc2ccc(F)cc2)C(=O)c2ccccn2)cc1 [Compound 5e, N-(4-fluorobenzyl)-N-(4-methoxyphenyl)picolinamide]	> 100

From publication PMC7673538 (PLoS Biology, 2020)
